According to patent US5198445A, “Composition and use of substituted 3-thio-2-propynenitriles as industrial antimicrobials” (The Dow Chemical Company, priority 1992, dated 1993):
In brackets after ≈: the same amount, converted by molar mass. Where two headings read alike, the source gives them in different places.

What was measured:
[1] = test system: mixture of the bacterial organisms listed in Table II; test: Multiple Challenge Test in styrene-butadiene latex; type: cell-based, bacteria listed in Table II; conditions: Styrene-Butadiene Latex Formulation; 10 challenges
Description: Additionally, the ability of the compounds of Table I to serve as preservatives in a variety of formulated industrial, household, and commercial products is tested using a Multiple Challenge Test Protocol. In this test, the formulations include a styrene-butadiene latex, a tape joint, a hand lotion, and a shampoo. The styrene-butadiene latex test formulation used is Latex DL 238A, available from The Dow Chemical Company. The compositions of the tape joint, hand lotion and shampoo test formulations can be found in Tables V-VII.
(§1) The formulations are separated into 50 g aliquots and placed in sterile bottles. An appropriate amount of a fresh one percent stock solution of the test compound in acetone-water is added to achieve the desired final concentrations. A small portion of each of the test formulations is streaked onto Tryptic Soy Agar (TSA) petri plates using sterile cotton swabs to ensure that the formulations are sterile. If the formulation is sterile, then it is inoculated with 0.1 ml of a mixture of equal aliquots of the 24 hour cultures of each of the bacterial organisms listed in Table II. The test formulations are then incubated at 30° C. After 24 hours, each sample is streaked onto a TSA petri plate using a sterile swab. All plates are then incubated at 30° C. for 48 hours and then rated for microbial growth using the rating system listed in Table VIII. Samples with a rating of 3 or less are reinoculated as described in the procedure for the first inoculation. Samples with a rating of 4 or greater are not reinoculated but after another 24 hours are restreaked on TSA agar.
The normal interpretation of the results is that a concentration of the antimicrobial being tested is considered to be effective if no ratings greater than a 3 are observed throughout the 10 challenges. The Minimum Effective Concentration (MEC), which is used to compare the activity of the antimicrobial additives in the end-use formulations, is the minimum level that is effective under the conditions of the Multiple Challenge Test.

[2] = test system: Candida albicans (Ca); test: MIC in malt yeast agar, Candida albicans; type: cell-based, Candida albicans ATCC 10231; conditions: read-out: Minimum Inhibitory Concentration, Ca
Description: (§2) The minimum inhibitory concentration (MIC) for the compounds listed in Table I is determined for 9 bacteria, using nutrient agar, and 7 yeast and fungi, using malt yeast agar. A one percent solution of the test compound is prepared in a mixture of acetone and water. Nutrient agar is prepared at pH 6.8, representing a neutral medium, and at pH 8.2, representing an alkaline medium. The nutrient agars are prepared by adding 23 g of nutrient agar to one-liter of deionized water. In addition, the alkaline medium is prepared by adjusting a 0.04M solution of N-[tris-(hydroxymethyl)methyl]-glycine buffered deionized water with concentrated sodium hydroxide to a pH of […]. Malt yeast agar is prepared by adding 3 g yeast extract and 45 g malt agar per liter of deionized water. The specific agar is dispensed in 30 ml aliquots into 25×200 mm test tubes, capped and autoclaved for 15 minutes at 115° C. The test tubes containing the agar are cooled in a water bath until the temperature of the agar is 48° C. Then, an appropriate amount of the one percent solution of the test compound is added (except in the controls where no compound is added) to the respective test tubes so that the final concentrations are 500, 250, 100, 50, 25, 10, 5, 2.5, 1.0 and zero parts per million of the test compound in the agar, thus having a known concentration of test compound dispersed therein. The contents of the test tubes are then transferred to respective petri plates. After drying for 24 hours, the petri plates containing nutrient agar are inoculated with bacteria and those containing malt yeast agar are inoculated with yeast and fungi.
The inoculation with the yeast and fungi is accomplished as follows. Cultures of yeast and fungi are incubated for seven days on malt yeast agar at 30° C. These cultures are used to prepare suspensions by the following procedure. A suspension of each organism is prepared by adding 10 ml of sterile saline and 10 microliters of octylphenoxy polyethoxy ethanol (TRITON® X-100, a trademark of Rohm & Haas Company) to the agar slant of yeast or fungi. The sterile saline/octylphenoxy polyethoxy ethanol solution is then agitated with a sterile swab to suspend the microorganism grown on the slant. Each resulting suspension is diluted into sterile saline (1 part suspension: 9 parts sterile saline). Aliquots of these dilutions are placed in individual wells of Steer's Replicator and petri plates inoculated as previously described. The petri plates are incubated at 30° C. and read after 48 hours for yeast and 72 hours for fungi.
(§3) Table II lists the bacteria, yeast and fungi used in the MIC test described above along with their respective American Type Culture Collection (ATCC) identification numbers.
(§4) The following MIC and MEC antimicrobial tests, whose results are shown in Tables XIII-XVII, are performed using the same methods as described hereinabove.

[3] = Stability of 3-thio-2-propynenitriles at pH 7 or above / in basic solution; type: physicochemical; conditions: basic solution / pH of 7 or above
Text: It has also been discovered that the compounds of the present invention may degrade at a pH of 7 or above over an extended time period to compounds which are less antimicrobially active than the original compounds of the present invention.

[4] = test system: mixture of the bacterial organisms listed in Table II; test: MEC in tape joint formulation after 3 months storage; type: cell-based, bacteria listed in Table II; conditions: 2190 h, pH between 5 and 7, after 3 months storage at room temperature
Description: as §1
(§5) The normal interpretation of the results is that a concentration of the antimicrobial being tested is considered to be effective if no ratings greater than a 3 are observed throughout the 10 challenges. […]

[5] = test system: Pseudomonas aeruginosa (Pa); test: MIC in nutrient agar, Pseudomonas aeruginosa; type: cell-based, Pseudomonas aeruginosa ATCC 10145
Description: as §2
The inoculation with bacteria is accomplished by using the following procedure. Twenty-four hour-cultures of each of the bacteria are prepared by incubating the respective bacteria in tubes containing nutrient broth for 24 hours at 30° C. in a shaker. Dilutions of each of the 24 hour-cultures are made so that nine separate suspensions (one for each of the nine test bacteria) are made, each containing 10^8 colony forming units (CFU) per ml of suspension of a particular bacteria. Aliquots of 0.3 ml of each of the bacterial suspensions are used to fill the individual wells of Steer's Replicator. For each microbial suspension, 0.3 ml was used to fill three wells (i.e., three wells of 0.3 ml each) so that for the nine different bacteria, 27 wells are filled. The Steer's Replicator is then used to inoculate both the neutral and alkaline pH nutrient agar petri plates.
The inoculated petri plates are incubated at 30° C. for 48 hours and then read to determine if the test compound which is incorporated into the agar prevented growth of the respective bacteria.
as §3, §4

[6] = test system: mixture of the bacterial organisms listed in Table II; test: MEC in paint formulation after 1 month storage; type: cell-based, bacteria listed in Table II; conditions: 730 h, pH between 7 and 9, after 1 month storage at room temperature
Description: as §1, §5

[7] = pH 8.2, read-out: Minimum Inhibitory Concentration, Pa

| SMILES | MEC [1] | MIC ([2]; malt yeast agar) | stability [3] | minimal effective concentration [4] | MIC [5, 7] | minimal effective concentration [6] | MIC ([5]; pH 6.8, read-out: Minimum Inhibitory Concentration, Pa) | MIC [2] |
| --- | --- | --- | --- | --- | --- | --- | --- | --- |
| CCSC#CC#N [B, 3-ethylthio-2-propynenitrile] | 25 ppm | < 1 µg/mL | – | – | – | – | – | – |
| N#CC#CSC1CCCC1 [C, 3-cyclopentylthio-2-propynenitrile] | 100 ppm | – | – | – | – | – | – | – |
| CSC#CC#N [Compound A, 3-methylthio-2-propynenitrile] | 10 ppm | 0.5 µg/mL (≈ 5.15 µM) | observed to decompose in a basic solution to several compounds | > 50 µg/mL | 2.5 µg/mL (≈ 25.7 µM) | > 50 µg/mL | – | – |
| CSC=C(Cl)C#N [Compound G, 2-chloro-3-(methylthio)-2-propenenitrile] | – | – | – | > 50 µg/mL | 5 µg/mL (≈ 37.4 µM) | – | 50 µg/mL (≈ 374 µM) | 50 µg/mL (≈ 374 µM) |
| N#CC#CSc1ccc(Cl)cc1 [D, 3-(4-chlorophenylthio)-2-propynenitrile] | 100 ppm | < 1 µg/mL | – | – | – | – | – | – |
